The values that follow come from PubChem BioAssay (NCI).

Test systems include CAKI-1 renal; COLO 205 colon; NCI-H460 lung; MDA-MB-435; OVCAR-3 ovarian; ACHN renal; SW-620 colon; 786-0 renal; SK-MEL-5 melanoma; OVCAR-5 ovarian.
What all share (assay): NCI-60 cell line screen, 48 h

Several values for one entry are separate records, joined by “and”; a condition that tells them apart may be missing. Equal entries are not always repeated.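 Cells were grown in 96-well plates and exposed to each compound for 48 hours at five concentrations; endpoints were interpolated linearly between bracketing concentrations, or set to the highest concentration if not reached. At the GI50, growth is halved. TGI: total growth inhibition.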

Consider `NNCCc1ccc(NC(=O)CCCc2ccc(C(=O)Nc3ccccc3N)cc2)cc1`, for which the GI50 in the experiment with CAKI-1 renal is 7.99 µM; in the experiment with COLO 205 colon, 8.48 µM; in the experiment with NCI-H460 lung, 13.3 µM; in the experiment on MDA-MB-435, 9.71 µM; in the experiment with OVCAR-3 ovarian, 9.42 µM; in the experiment with ACHN renal, 17.7 µM. Also, the GI50 was 5.77 µM in the experiment on SW-620 colon, 15.7 µM with 786-0 renal, 6.19 µM in the experiment with SK-MEL-5 melanoma and 8.15 µM in the experiment on OVCAR-5 ovarian. Further, the TGI is over 100 µM in the experiment on CAKI-1 renal; 40.7 µM in the experiment on COLO 205 colon; over 100 µM in the experiment with NCI-H460 lung; over 100 µM in the experiment with MDA-MB-435; over 100 µM in the experiment with OVCAR-3 ovarian; over 100 µM with ACHN renal. Further, the TGI in the experiment with SW-620 colon was over 100 µM; with 786-0 renal it was over 100 µM; in the experiment on SK-MEL-5 melanoma, 21.7 µM; in the experiment on OVCAR-5 ovarian, over 100 µM.
As to `CCC(C)(O)c1cnc(CC(C)C)c(=O)n1O` (stereo not drawn), the TGI in the experiment on CAKI-1 renal is over 100 µM; in the experiment with COLO 205 colon it was over 100 µM; in the experiment on NCI-H460 lung it was 81.8 µM; in the experiment with MDA-MB-435, over 100 µM; in the experiment on OVCAR-3 ovarian it was 81.6 µM; in the experiment on ACHN renal, over 100 µM. The TGI is over 100 µM with SW-620 colon, over 100 µM in the experiment with 786-0 renal, over 100 µM with SK-MEL-5 melanoma and 25.8 µM in the experiment on OVCAR-5 ovarian.
Regarding `COc1ccc(-c2cnnn2-c2nonc2-n2cccc2)cc1`, the GI50 in the experiment on CAKI-1 renal was 0.245 µM; with COLO 205 colon, 0.235 µM; with NCI-H460 lung, 0.344 µM; in the experiment with MDA-MB-435, 0.0325 µM; in the experiment on OVCAR-3 ovarian, 0.179 µM; in the experiment with ACHN renal it was 1.05 µM. The GI50 in the experiment with SW-620 colon was 0.149 µM; in the experiment on 786-0 renal, 0.488 µM; with SK-MEL-5 melanoma it was 0.324 µM; in the experiment on OVCAR-5 ovarian, 1.45 µM. The TGI with CAKI-1 renal was over 67.1 µM; in the experiment with COLO 205 colon, 0.787 µM; in the experiment with NCI-H460 lung it was 11.6 µM; in the experiment with MDA-MB-435, 0.173 µM; in the experiment with OVCAR-3 ovarian it was 0.47 µM; in the experiment on ACHN renal it was over 94 µM. Also, the TGI was over 100 µM with SW-620 colon, over 34 µM in the experiment with 786-0 renal, 13.2 µM with SK-MEL-5 melanoma and over 100 µM in the experiment on OVCAR-5 ovarian.
Turning to `CN(C)CCNCCN`, the TGI with CAKI-1 renal, in the experiment on COLO 205 colon, in the experiment with NCI-H460 lung, with MDA-MB-435, in the experiment on OVCAR-3 ovarian and with ACHN renal was over 100 µM in each case. In addition, the TGI with SW-620 colon, in the experiment with 786-0 renal, in the experiment with SK-MEL-5 melanoma and in the experiment with OVCAR-5 ovarian was over 100 µM throughout.
Turning to `CC(C)CC(C/C=C1/CC(CO)(COC(=O)C(C)(C)C)OC1=O)CC(C)C` (stereo not drawn), the GI50 in the experiment with CAKI-1 renal was 7.62 µM and 1.19 µM; in the experiment on OVCAR-3 ovarian it was 14.9 µM and 5.32 µM; in the experiment with ACHN renal it was 11.4 µM and 5.25 µM; in the experiment with 786-0 renal, 1.72 µM and 7.83 µM; in the experiment with SK-MEL-5 melanoma, 0.462 µM and 0.0794 µM. The TGI is 21.5 µM and 9.68 µM in the experiment on CAKI-1 renal; 0.958 µM with COLO 205 colon; 17.8 µM and 5.69 µM in the experiment on NCI-H460 lung; 18.3 µM and 15 µM with MDA-MB-435; 36.6 µM and 18.8 µM in the experiment with OVCAR-3 ovarian; 24.1 µM and 21.3 µM in the experiment with ACHN renal. For the same compound, the TGI with SW-620 colon was 19.4 µM and 22 µM; in the experiment with 786-0 renal, 17.7 µM and 26.3 µM; in the experiment with SK-MEL-5 melanoma it was 18.8 µM and 4.95 µM; in the experiment on OVCAR-5 ovarian it was 24.5 µM.
On to `O=C1Nc2ccccc2/C1=C1\CCc2cc(O)ccc21`, for which the GI50 in the experiment on CAKI-1 renal is 7.12 µM; with COLO 205 colon it was 12.4 µM; with NCI-H460 lung, 8.7 µM; with MDA-MB-435, 2.24 µM; with OVCAR-3 ovarian, 9.95 µM; in the experiment with ACHN renal it was 10.6 µM. Besides, the GI50 was 8.05 µM in the experiment on SW-620 colon, 19.2 µM in the experiment with 786-0 renal, 6.62 µM with SK-MEL-5 melanoma and 16.1 µM in the experiment on OVCAR-5 ovarian. For the same compound, the TGI in the experiment with CAKI-1 renal, in the experiment with COLO 205 colon, in the experiment on NCI-H460 lung, in the experiment with MDA-MB-435, in the experiment on OVCAR-3 ovarian and in the experiment with ACHN renal was over 25 µM throughout. Further, the TGI in the experiment on SW-620 colon, with 786-0 renal, in the experiment with SK-MEL-5 melanoma and in the experiment with OVCAR-5 ovarian was over 25 µM throughout.
Turning to `O=C(Nc1cc(Cl)ccc1O)c1ccc(Nc2ccnc(C(F)(F)F)c2)cc1`, the GI50 in the experiment with CAKI-1 renal is 2.02 µM; in the experiment on COLO 205 colon, 1.86 µM; in the experiment with NCI-H460 lung, 2.49 µM; with MDA-MB-435 it was 2.95 µM; with OVCAR-3 ovarian, 2.16 µM; in the experiment with ACHN renal it was 2.35 µM. The GI50 with SW-620 colon was 3.73 µM; in the experiment with 786-0 renal it was 3.61 µM; in the experiment with SK-MEL-5 melanoma it was 2.19 µM; in the experiment with OVCAR-5 ovarian, 3.61 µM. Further, the TGI in the experiment on CAKI-1 renal amounted to 7.77 µM; with COLO 205 colon it was 4.23 µM; in the experiment with NCI-H460 lung, 6.91 µM; with MDA-MB-435, 9.53 µM; in the experiment on OVCAR-3 ovarian, 5.58 µM; in the experiment on ACHN renal it was 7.42 µM. The TGI is over 100 µM in the experiment with SW-620 colon, over 100 µM with 786-0 renal, 4.95 µM in the experiment on SK-MEL-5 melanoma and over 100 µM with OVCAR-5 ovarian.
`OC(c1cc(-c2ccc(C(F)(F)F)cc2)nc(C(F)(F)F)c1)C1CCCCN1` (stereo not drawn): the GI50 with CAKI-1 renal was 1.48 µM; in the experiment on NCI-H460 lung, 1.81 µM; in the experiment with MDA-MB-435, 1.67 µM; with OVCAR-3 ovarian, 1.85 µM and 2.69 µM; in the experiment with ACHN renal, 1.56 µM and 2.37 µM; in the experiment with 786-0 renal, 1.57 µM. Further, the GI50 was 1.63 µM and 1.86 µM with SK-MEL-5 melanoma; 1.53 µM and 2.71 µM in the experiment with OVCAR-5 ovarian. Besides, the TGI in the experiment on CAKI-1 renal is 2.81 µM and 17.7 µM; in the experiment on COLO 205 colon, 3.42 µM and 3.15 µM; in the experiment with NCI-H460 lung, 3.4 µM and 3.95 µM; in the experiment on MDA-MB-435, 3.05 µM and 3.42 µM; in the experiment on OVCAR-3 ovarian, 3.28 µM and 6.76 µM; in the experiment on ACHN renal, 2.9 µM and 6.39 µM. Besides, the TGI in the experiment with SW-620 colon was 3.33 µM and 3.36 µM; in the experiment on 786-0 renal it was 3.16 µM and 3.48 µM; with SK-MEL-5 melanoma, 2.99 µM and 3.27 µM; with OVCAR-5 ovarian, 2.87 µM and 7.52 µM.
As for `CC(C)(C)[Si](C)(C)OC1[C@@H](CNC(=O)NC(=O)CCl)O[C@@H](n2cnc3c(N)ncnc32)[C@H]1O[Si](C)(C)C(C)(C)C` (stereo partly drawn), the GI50 with CAKI-1 renal was 1.33 µM; in the experiment on COLO 205 colon, 1.45 µM; in the experiment with NCI-H460 lung, 1.24 µM; in the experiment with MDA-MB-435, 0.798 µM; in the experiment on OVCAR-3 ovarian, 1.02 µM; in the experiment on ACHN renal, 0.462 µM. The GI50 in the experiment on SW-620 colon was 0.891 µM; with 786-0 renal, 0.662 µM; with SK-MEL-5 melanoma, 0.862 µM; with OVCAR-5 ovarian, 0.818 µM. Further, the TGI was 3.89 µM in the experiment with CAKI-1 renal; 3.55 µM with COLO 205 colon; 3.21 µM in the experiment on NCI-H460 lung; 1.56 µM with MDA-MB-435; 1.94 µM with OVCAR-3 ovarian; 1.11 µM in the experiment with ACHN renal. The TGI in the experiment on SW-620 colon was 1.77 µM; in the experiment on 786-0 renal, 1.55 µM; with SK-MEL-5 melanoma it was 1.6 µM; in the experiment with OVCAR-5 ovarian, 1.62 µM.
